For series [1] the following is noted: longer than 2; cited from earlier work.
The target of series [2] is T1, Recombinant cathepsin K (human) (Homo sapiens, UniProt P43235).
T1 sequence (P43235 115-329): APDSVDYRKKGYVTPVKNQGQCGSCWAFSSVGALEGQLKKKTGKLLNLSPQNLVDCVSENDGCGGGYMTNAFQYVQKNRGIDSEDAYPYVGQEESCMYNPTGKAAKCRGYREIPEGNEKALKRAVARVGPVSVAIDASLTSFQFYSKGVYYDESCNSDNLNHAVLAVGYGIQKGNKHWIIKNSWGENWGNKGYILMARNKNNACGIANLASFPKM
The note with it: read-out: IC50 against purified human cathepsin K; parent inhibitors; identical within error under light vs. dark; cathepsin K 2 nM, Z-Gly-Pro-Arg-AMC 100 μM.

The test system of series [3] is purified cathepsin K. The note with it: read-out: IC50 against purified cathepsin K; literature value; cited from earlier work.
For series [4] the following is noted: cited from earlier work.
Series [5] concerns bone marrow macrophages (BMMs). Kind of series: Cell viability, MTT assay, BMM cells. The note with it: dark or irradiated, 24 h, tested 1 nM–100 μM. In general terms: Formazan colour is commonly taken as a measure of viable cells.
Series [6] deals with T2, cathepsin K (Mus musculus, UniProt P55097).
T2 sequence (P55097 115-329): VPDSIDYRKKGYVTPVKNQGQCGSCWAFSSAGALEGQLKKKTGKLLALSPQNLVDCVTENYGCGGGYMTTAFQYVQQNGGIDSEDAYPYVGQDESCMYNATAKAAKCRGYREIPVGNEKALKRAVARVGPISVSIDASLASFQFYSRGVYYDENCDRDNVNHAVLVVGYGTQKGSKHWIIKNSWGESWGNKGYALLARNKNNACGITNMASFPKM
Kind of series: Live cell cathepsin K activity staining in osteoclasts.

For series [7], the system named is PC3 prostate carcinoma cells. Description: Cell viability, MTT assay, PC3 cells. The note with it: PC-3 cells, dark or irradiated, 24 h, tested 1 nM–100 μM.
The subject of series [8] is cathepsin K. The note with it: cited from earlier work.

Here are results for three compounds from article PMC4095795 (ChemMedChem, 2014).

Take `CC(C)CC(NC(=O)OCc1ccccc1)C(=O)NC(C#N)COCc1ccccc1` (stereo not drawn) [Compound 3, Cbz-Leu-Ser(OBn)-CN]: the “half-life in vivo relative to 2” value in series [1] is on record as “roughly 10 times”. For the same compound, the 50% inhibitory concentration (IC50) in series [2] is 28 nM; in series [3] it was 9 nM. In addition, the “plasma stability relative to 2” value in series [4] is on record as “longer plasma stability”.
On to `CC#N.CC#N.F[P-](F)(F)(F)(F)F.F[P-](F)(F)(F)(F)F.[Ru+2].c1ccc(-c2ccccn2)nc1.c1ccc(-c2ccccn2)nc1` [reference compound], for which the “concentrations with no effects on viability / well tolerated (MTT)” value in series [5] and in series [7] was “up to 10 μM” each time. Moreover, in series [6] (1000 nM, with CA074Me 1 μM), the “effect on Z-LR-4MβNA hydrolysis at 1000 nM” value is on record as “slight reduction”. The “difference in inhibition between light and dark” value in series [6] (Z-LR-4MβNA, with CA074Me 1 μM) was “no difference in inhibition between light and dark experiments”.
In the case of `CC(C)CC(NC(=O)OCc1ccccc1)C(=O)NCC#N` (stereo not drawn) [Compound 2, Cbz-Leu-NHCH2CN, reference compound], the IC50 in series [2] was 36 nM; in series [3] it was 35 nM. In series [6] (4 under light conditions), the “maximum inhibition of Z-LR-4MβNA hydrolysis” value was found to be 50%. Further, in series [6] (10–1000 nM, dose dependent, with CA074Me 1 μM), the “reduction of hydrolysis of Z-LR-4MβNA” value was “up to 50%”. In series [8], the “inhibition of cathepsin K activity in live cell assays” value is “inhibit cathepsin K activity in live cell assays”.

Broadly, the IC50 is the concentration that inhibits the measured activity by half.
